{
  "source": "ChEMBL document CHEMBL1157260",
  "about": "“Cytotoxic diterpenes from Cassipourea madagascariensis from the Madagascar rainforest” (J Nat Prod, 2006)",
  "test_system": "A2780",
  "experiment": "Cytotoxicity against human A2780 cells by clonogenic assay",
  "format": "functional, cell-based",
  "data": [
    {"compound": "C=C(CO)[C@@H]1CC[C@]2(C)CC[C@]3(C)[C@H](CC[C@@H]4[C@@]5(C)CCC(=O)C(C)(C)[C@@H]5CC[C@]43C)[C@@H]12", "values": [
      {"measurement": "IC50", "value": 16.4, "unit": "µg/mL"}
    ]},
    {"compound": "C=C(CO)[C@@H]1CC[C@]2(C)CC[C@]3(C)[C@H](CC[C@@H]4[C@@]5(C)CC[C@H](O)C(C)(C)[C@@H]5CC[C@]43C)[C@@H]12", "values": [
      {"measurement": "IC50", "value": 12.2, "unit": "µg/mL"}
    ]},
    {"compound": "C/C(=C\\CO)CCCC(C)CC[C@H]1[C@@H](C)CCCC1(C)C", "note": "(stereo not given in full) [CASSIPOUROL]", "values": [
      {"measurement": "IC50", "value": 2.4, "unit": "µg/mL"}
    ]},
    {"compound": "CC(=O)OC/C=C(\\C)CCCC(C)CC[C@H]1[C@@H](C)CCCC1(C)C", "note": "(stereo not given in full) [CASSIPOURYL ACETATE]", "values": [
      {"measurement": "IC50", "value": 2.8, "unit": "µg/mL"}
    ]},
    {"compound": "COc1cc(O)c2c(=O)c(OC)c(-c3cc(OC)c(OC)c(OC)c3)oc2c1", "note": "[COMBRETOL]", "values": [
      {"measurement": "IC50", "value": 8.7, "unit": "µg/mL"}
    ]}
  ]
}
